Assay results reported in ChEMBL document CHEMBL5647694, “Novel orally bioavailable EZH1/2 dual inhibitors with greater antitumor efficacy than an EZH2 selective inhibitor” (Cancer Sci, 2017).

Tests used:
[1] = biological target: Discoidin domain-containing receptor 2 (Homo sapiens) (UniProt Q16832); assay: Inhibition of N-terminal GST-fused human DDR2 cytoplasmic domain (422 to 855 residues) expressed in baculovirus-infected Sf21 cells using IRS1 as substrate at 1 uM in presence of ATP by Mobility shift assay
[2] = biological target: Tyrosine-protein kinase Fer (Homo sapiens) (UniProt P16591); assay: Inhibition of N-terminal GST-fused full length human FER (1 to 822 residues) expressed in baculovirus-infected Sf21 cells using Srctide as substrate at 1 uM in presence of ATP by Mobility shift assay
[3] = biological target: Tyrosine-protein kinase Fyn (Homo sapiens) (UniProt P06241); assay: Inhibition of human FYN at 1 uM by mobility shift assay relative to control
[4] = biological target: Leukocyte tyrosine kinase receptor (Homo sapiens) (UniProt P29376); assay: Inhibition of N-terminal GST-tagged human LTK catalytic domain (498 to 796 residues) expressed in baculovirus-infected Sf21 cells using Srctide as substrate at 1 uM in presence of ATP by Mobility shift assay
[5] = biological target: Tyrosine-protein kinase Lyn (Homo sapiens) (UniProt P07948); assay: Inhibition of N-terminal GST-tagged full length human LynA(1 to 512 residues ) expressed in baculovirus-infected Sf21 cells using Srctide as substrate at 1 uM in presence of ATP by Mobility shift assay
[6] = biological target: Tyrosine-protein kinase Srms (Homo sapiens) (UniProt Q9H3Y6); assay: Inhibition of N-terminal GST-tagged human SRM catalytic domain (215 to 488 residues) expressed in baculovirus-infected Sf21 cells using Blk/Lyntide as substrate at 1 uM in presence of ATP by Mobility shift assay
[7] = biological target: Tyrosine-protein kinase Yes (Homo sapiens) (UniProt P07947); assay: Inhibition of N-terminal GST-tagged full length human YES (1 to 543 residues) expressed in baculovirus-infected Sf21 cells using Srctide as substrate at 1 uM in presence of ATP by Mobility shift assay
[8] = biological target: cGMP-dependent protein kinase 2 (Homo sapiens) (UniProt Q13237); assay: Inhibition of N-terminal GST-fused full length human CGK2 (1 to 762 residues) expressed in baculovirus expression system using Kemptide as substrate at 1 uM in presence of ATP by Mobility shift assay
[9] = biological target: Casein kinase I isoform gamma-2 (Homo sapiens) (UniProt P78368); assay: Inhibition of N-terminal GST-fused full length human CK1gamma2 (1 to 415 residues) expressed in baculovirus expression system using CKtide as substrate at 1 uM in presence of ATP by Mobility shift assay
[10] = biological target: Homeodomain-interacting protein kinase 1 (Homo sapiens) (UniProt Q86Z02); assay: Inhibition of N-terminal GST-fused human HIPK1 catalytic domain (158 to 555 residues) expressed in baculovirus expression system using DYRKtide-F as substrate at 1 uM in presence of ATP by Mobility shift assay
[11] = biological target: MAP kinase-activated protein kinase 5 (Homo sapiens) (UniProt Q8IW41); assay: Inhibition of N-terminal GST-fused full length human MAPKAPK5 (1 to 471 residues) expressed in baculovirus expression system using GS peptide as substrate at 1 uM in presence of ATP by Mobility shift assay
[12] = biological target: Misshapen-like kinase 1 (Homo sapiens) (UniProt Q8N4C8); assay: Inhibition of N-terminal GST-fused human MINK catalytic domain (1 to 314 residues) expressed in baculovirus expression system using Modified Erktide as substrate at 1 uM in presence of ATP by Mobility shift assay
[13] = biological target: Serine/threonine-protein kinase 38-like (Homo sapiens) (UniProt Q9Y2H1); assay: Inhibition of N-terminal GST-fused full length human NDR2 (1 to 464 residues) expressed in baculovirus expression system using SGKtide as substrate at 1 uM in presence of ATP by Mobility shift assay
[14] = biological target: Serine/threonine-protein kinase Nek6 (Homo sapiens) (UniProt Q9HC98); assay: Inhibition of N-terminal GST-fused full length human NEK6 (1 to 313 residues) expressed in baculovirus expression system using CDK7 peptide as substrate at 1 uM in presence of ATP by Mobility shift assay
[15] = biological target: [Pyruvate dehydrogenase (acetyl-transferring)] kinase isozyme 2, mitochondrial (Homo sapiens) (UniProt Q15119); assay: Inhibition of N-terminal GST-fused full length human PDHK2 (1 to 407 residues) expressed in baculovirus expression system using PDHKtide as substrate at 1 uM in presence of ATP by Mobility shift assay
[16] = biological target: Serine/threonine-protein kinase pim-1 (Homo sapiens) (UniProt P11309); assay: Inhibition of N-terminal His-tagged full length human PIM1 (1 to 313 residues) expressed in baculovirus expression system using S6K2 peptide as substrate at 1 uM in presence of ATP by Mobility shift assay
[17] = biological target: Protein kinase C zeta type (Homo sapiens) (UniProt Q05513); assay: Inhibition of N-terminal GST-fused human full length PKC-zeta (1 to 592 residues ) expressed in baculovirus expression system using PKC peptide as substrate at 1 uM in presence of ATP by Mobility shift assay
[18] = biological target: Protein kinase C eta type (Homo sapiens) (UniProt P24723); assay: Inhibition of N-terminal GST-fused human full length PKC-eta (1 to 683 residues ) expressed in baculovirus expression system using PKC peptide as substrate at 1 uM in presence of ATP by Mobility shift assay
[19] = biological target: Protein kinase C theta type (Homo sapiens) (UniProt Q04759); assay: Inhibition of N-terminal GST-fused human full length PKC-theta (1 to 706 residues ) expressed in baculovirus expression system using PKC peptide as substrate at 1 uM in presence of ATP by Mobility shift assay
[20] = biological target: Serine/threonine-protein kinase D3 (Homo sapiens) (UniProt O94806); assay: Inhibition of N-terminal GST-fused full length human PKD3 (1 to 890 residues) expressed in baculovirus expression system using GS peptide as substrate at 1 uM in presence of ATP by Mobility shift assay
[21] = biological target: Rho-associated protein kinase 1 (Homo sapiens) (UniProt Q13464); assay: Inhibition of N-terminal GST-fused human ROCK1 catalytic domain (1 to 477 residues) expressed in baculovirus expression system using LIMKtide as substrate at 1 uM in presence of ATP by Mobility shift assay
[22] = biological target: Ribosomal protein S6 kinase alpha-3 (Homo sapiens) (UniProt P51812); assay: Inhibition of N-terminal GST-fused human full length RSK2 (1 to 740 residues) expressed in baculovirus expression system using S6K peptide(N-FL) as substrate at 1 uM in presence of ATP by Mobility shift assay
[23] = biological target: Serine/threonine-protein kinase Sgk1 (Homo sapiens) (UniProt O00141); assay: Inhibition of N-terminal GST-tagged truncated human SGK (61 to 431 residues) expressed in baculovirus expression system using SGKtide as substrate at 1 uM in presence of ATP by Mobility shift assay
[24] = organism: Homo sapiens; assay: Competitive inhibition of PRC2-EZH2 (unknown origin) assessed as intensity of SAM signal using SAM as substrate at 800 uM by STD-NMR analysis (reference value: 100%); set-up: scale not given: the % may be the effect or the level left

Cc1cc(C)c(CNC(=O)c2cc(Br)c3c(c2C)O[C@@](C)([C@H]2CC[C@H](N(C)C)CC2)O3)c(=O)[nH]1
inhibition [1]: -0.2%
inhibition [2]: 0.1%
inhibition [3]: 2.6%
inhibition [4]: -3.2%
inhibition [5]: -3.7%
inhibition [6]: -0.1%
inhibition [7]: -1.6%
inhibition [8]: -2.3%
inhibition [9]: -2.8%
inhibition [10]: -4.7%
inhibition [11]: -3.1%
inhibition [12]: -2.6%
inhibition [13]: -2.4%
inhibition [14]: -0.1%
inhibition [15]: 1.6%
inhibition [16]: 1.3%
inhibition [17]: 3.2%
inhibition [18]: 10.8%
inhibition [19]: 6.6%
inhibition [20]: 6.7%
inhibition [21]: 3%
inhibition [22]: -4%
inhibition [23]: -3%
Activity [24]: 59%

Cc1cc(C)c(CNC(=O)c2cc(Cl)c3c(c2C)O[C@@](C)([C@H]2CC[C@H](N(C)C)CC2)O3)c(=O)[nH]1 [VALEMETOSTAT]
inhibition [1]: -2.8%
inhibition [2]: -3.7%
inhibition [3]: 5.1%
inhibition [4]: 0.1%
inhibition [5]: -3.7%
inhibition [6]: 0.6%
inhibition [7]: -1.8%
inhibition [8]: -4.3%
inhibition [9]: -5.8%
inhibition [10]: 0.5%
inhibition [11]: -5.7%
inhibition [12]: -4.6%
inhibition [13]: -1.3%
inhibition [14]: 0.7%
inhibition [15]: 1.4%
inhibition [16]: 17.1%
inhibition [17]: 9.3%
inhibition [18]: 19.8%
inhibition [19]: -0.6%
inhibition [20]: 3.5%
inhibition [21]: -2.5%
inhibition [22]: -0.5%
inhibition [23]: -4.2%
Activity [24]: 62%
